Test results reported in US10398751B2, “Pharmaceutical compositions of water soluble peptides with poor solubility in isotonic conditions and methods for their use” (STRONGBRIDGE IRELAND LIMITED, priority 2016, dated 2019).

Experiment: Comparative surface tension of peptides in water for injection
Assay type: physicochemical
Conditions: 10 mg/ml in WFI

Effect of reduced surface tension (%) (baseline WFI): −37% | Water surface tension (dyne/cm) (baseline WFI 52): 33 dyne/cm
SMILES: C[C@@H](O)[C@@H]1NC(=O)[C@H](CCCCN)NC(=O)[C@@H](Cc2c[nH]c3ccccc23)NC(=O)[C@H](Cc2c[nH]c3ccccc23)NC(=O)[C@H](Cc2ccccc2)NC(=O)CCCNC(=O)CCCN(CC(N)=O)C(=O)[C@H](Cc2ccccc2)NC1=O [Veldoreotide, cyclo(-γ-aminobutyryl-L-phenylalanyl-L-tryptophanyl-D-tryptophanyl-L-lysyl-L-threonyl-L-phenylalanyl-N-carbamoylmethyl-γ-aminobutyryl)]
